The text below walks through data of PubChem BioAssay AID248 (DTP/NCI, 2004).

The test has as its system L1210 leukemia ip in BDF1 mice, survival T/C. The test is described as follows: NCI In Vivo Anticancer Drug Screen. Data for tumor model L1210 Leukemia (intraperitoneal) in B6D2F1 (BDF1) mice. To be noted: endpoint: mean survival time, higher = longer survival. The procedure, abridged: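 Ratio derived from survival: compound-dosed mice over vehicle-dosed mice, all bearing a transplantable tumor.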

Setting [1] is: dose: 100.0 mg/kg/injection, schedule: Q01DX001 (ip), vehicle: carboxymethylcellulose (CMC).
Setting [2] is: dose: 200.0 mg/kg/injection, schedule: Q01DX001 (ip), vehicle: carboxymethylcellulose (CMC).
[3] abbreviates: dose: 400.0 mg/kg/injection, schedule: Q01DX001 (ip), vehicle: carboxymethylcellulose (CMC).
Where [4] appears, read: dose: 100.0 mg/kg/injection, schedule: Q04DX002 (ip), vehicle: saline with Tween-80.
Setting [5] is: dose: 200.0 mg/kg/injection, schedule: Q04DX002 (ip), vehicle: saline with Tween-80.
[6] abbreviates: dose: 100.0 mg/kg/injection, schedule: Q01DX009 (ip), vehicle: Klucel (hydroxypropylcellulose) (HPC).
Setting [7] is: dose: 200.0 mg/kg/injection, schedule: Q01DX009 (ip), vehicle: Klucel (hydroxypropylcellulose) (HPC).
[8] abbreviates: dose: 400.0 mg/kg/injection, schedule: Q01DX009 (ip), vehicle: Klucel (hydroxypropylcellulose) (HPC).
Where [9] appears, read: dose: 100.0 mg/kg/injection, schedule: Q04DX003 (ip), vehicle: saline with Tween-80.
The mark [10] stands for this setting: dose: 25.0 mg/kg/injection, schedule: Q04DX003 (ip), vehicle: saline with Tween-80.
Setting [11] is: dose: 50.0 mg/kg/injection, schedule: Q04DX003 (ip), vehicle: saline with Tween-80.

Several values for one entry are separate records, joined by “and”; a condition that tells them apart may be missing. Equal values may be shown once. Toxic doses and inconclusive results are not listed. Peptide text beside a SMILES is read from it. * marks the point of attachment. Trt = c1ccc(C(c2ccccc2)(c2ccccc2)*)cc1

For `COc1ccc(OC)c(NC(=O)Nc2cccc(C(F)(F)F)c2)c1`, the T/C (dose: 25.0 mg/kg/injection, schedule: Q01DX009 (ip), vehicle: carboxymethylcellulose (CMC)) was 97 % of control and 87 % of control; the T/C (dose: 50.0 mg/kg/injection, schedule: Q01DX009 (ip), vehicle: carboxymethylcellulose (CMC)) is 112 % of control and 88 % of control; the T/C under setting [1] is 103 % of control and 107 % of control; the T/C (dose: 100.0 mg/kg/injection, schedule: Q01DX009 (ip), vehicle: carboxymethylcellulose (CMC)) was 87 % of control; the T/C (dose: 100.0 mg/kg/injection, schedule: Q04DX002 (ip), vehicle: carboxymethylcellulose (CMC)) was 95 % of control and 89 % of control; the T/C (dose: 100.0 mg/kg/injection, schedule: Q04DX003 (ip), vehicle: carboxymethylcellulose (CMC)) was 103 % of control and 87 % of control. In addition, the T/C was 96 % of control and 89 % of control under setting [2]; 92 % of control and 99 % of control (dose: 200.0 mg/kg/injection, schedule: Q04DX002 (ip), vehicle: carboxymethylcellulose (CMC)); 93 % of control and 87 % of control (dose: 200.0 mg/kg/injection, schedule: Q04DX003 (ip), vehicle: carboxymethylcellulose (CMC)); 94 % of control and 100 % of control under setting [3]; 86 % of control (dose: 400.0 mg/kg/injection, schedule: Q01DX009 (ip), vehicle: carboxymethylcellulose (CMC)); 86 % of control (dose: 400.0 mg/kg/injection, schedule: Q04DX002 (ip), vehicle: carboxymethylcellulose (CMC)). In addition, the T/C (dose: 400.0 mg/kg/injection, schedule: Q04DX003 (ip), vehicle: carboxymethylcellulose (CMC)) is 90 % of control.

As to `O=C(N/N=C/c1cccc([N+](=O)[O-])c1)c1ccc(Cl)c(Cl)c1`, the T/C is, setting by setting: (dose: 50.0 mg/kg/injection, schedule: Q01DX009 (ip), vehicle: saline with Tween-80) 93 % of control; (dose: 100.0 mg/kg/injection, schedule: Q01DX009 (ip), vehicle: saline with Tween-80) 93 % of control; (dose: 200.0 mg/kg/injection, schedule: Q01DX009 (ip), vehicle: saline with Tween-80) 90 % of control.

As to `CC1(O)OC(n2c(Br)nc3c(N)ncnc32)C(O)C1O` (stereo not drawn), the T/C runs as follows: under setting [1], 103 % of control; under setting [2], 101 % of control; under setting [3], 95 % of control.

In the case of `[Cu+2].[NH-]C1C(Cl)CCC2C(Cl)CC[N-]C12` (stereo not drawn), the T/C is 91 % of control (dose: 6.0 mg/kg/injection, schedule: Q04DX003 (ip), vehicle: Klucel (hydroxypropylcellulose) (HPC)); 108 % of control (dose: 12.0 mg/kg/injection, schedule: Q01DX001 (ip), vehicle: other); 102 % of control (dose: 12.0 mg/kg/injection, schedule: Q04DX003 (ip), vehicle: Klucel (hydroxypropylcellulose) (HPC)); 108 % of control (dose: 25.0 mg/kg/injection, schedule: Q01DX001 (ip), vehicle: other).

With `CCCNC(=O)c1ccc(NCc2cnc3nc(N)nc(N)c3n2)cc1`, the T/C reads like this: (dose: 100.0 mg/kg/injection, schedule: Q01DX001 (ip), vehicle: Klucel (hydroxypropylcellulose) (HPC)) 92 % of control; (dose: 200.0 mg/kg/injection, schedule: Q01DX001 (ip), vehicle: Klucel (hydroxypropylcellulose) (HPC)) 100 % of control; (dose: 400.0 mg/kg/injection, schedule: Q01DX001 (ip), vehicle: Klucel (hydroxypropylcellulose) (HPC)) 98 % of control.

For the compound `CN(CCNC(=O)c1ccccc1C(=O)O)c1ccccc1`, the T/C is, setting by setting: under setting [4], 100 % of control; under setting [5], 95 % of control.

With `C/C=C\CCCCCCC`, the T/C (dose: 50.0 mg/kg/injection, schedule: Q01DX001 (ip), vehicle: carboxymethylcellulose (CMC)) was 90 % of control; the T/C under setting [1] was 90 % of control; the T/C under setting [2] was 95 % of control; the T/C under setting [3] is 90 % of control.

Take `CC(=O)/C=C/c1ccc(O)cc1`: the T/C under setting [6] was 98 % of control, the T/C under setting [7] is 96 % of control and the T/C under setting [8] was 100 % of control.

Take `CC([NH-])C(C)[NH-].[Cl][Pd][Cl]` (stereo not drawn): the T/C reads like this: (dose: 12.5 mg/kg/injection, schedule: Q04DX002 (ip), vehicle: Klucel (hydroxypropylcellulose) (HPC)) 97 % of control; (dose: 25.0 mg/kg/injection, schedule: Q04DX002 (ip), vehicle: Klucel (hydroxypropylcellulose) (HPC)) 97 % of control; (dose: 50.0 mg/kg/injection, schedule: Q04DX002 (ip), vehicle: Klucel (hydroxypropylcellulose) (HPC)) 93 % of control; (dose: 50.0 mg/kg/injection, schedule: Q04DX002 (ip), vehicle: saline with Tween-80) 93 % of control; under setting [4], 90 % of control; under setting [5], 97 % of control.

Turning to `CN(C(N)=S)c1ccccc1`, the T/C was 101 % of control under setting [9]; 102 % of control (dose: 200.0 mg/kg/injection, schedule: Q04DX003 (ip), vehicle: saline with Tween-80); 104 % of control (dose: 400.0 mg/kg/injection, schedule: Q04DX003 (ip), vehicle: saline with Tween-80).

On to `S=P(c1ccccc1)(c1ccccc1)C(P(c1ccccc1)c1ccccc1)P(c1ccccc1)c1ccccc1`, for which the T/C reads like this: under setting [4], 97 % of control; under setting [5], 100 % of control; (dose: 400.0 mg/kg/injection, schedule: Q04DX002 (ip), vehicle: saline with Tween-80) 97 % of control.

For `CCN(CC)S(=O)(=O)c1cccc(C(O)CC(O)(C(F)(F)F)C(F)(F)F)c1` (stereo not drawn), the T/C reads like this: (dose: 100.0 mg/kg/injection, schedule: Q04DX003 (ip), vehicle: other) 102 % of control; (dose: 200.0 mg/kg/injection, schedule: Q04DX003 (ip), vehicle: other) 100 % of control; (dose: 400.0 mg/kg/injection, schedule: Q04DX003 (ip), vehicle: other) 96 % of control.

`CC[CH2][Sn]([CH2]CC)([CH2]CC)[O]C(=O)CN1CCC[CH]([Hg][c]2cccnc2)C1` (stereo not drawn): the T/C runs as follows: (dose: 50.0 mg/kg/injection, schedule: Q01DX001 (ip), vehicle: saline) 98 % of control; (dose: 100.0 mg/kg/injection, schedule: Q01DX001 (ip), vehicle: saline) 109 % of control; (dose: 200.0 mg/kg/injection, schedule: Q01DX001 (ip), vehicle: saline) 104 % of control.

On to `NNc1nnc(Cl)cc1N`, for which the T/C is 102 % of control under setting [10], 104 % of control under setting [11] and 113 % of control under setting [9].

In the case of `Cc1ccc(Cl)cc1NC(=O)C(Cl)Cl`, the T/C under setting [6] was 92 % of control, the T/C under setting [7] is 89 % of control and the T/C under setting [8] is 90 % of control.

Take `CCOC(=O)NN1C(=O)c2cccc3c([N+](=O)[O-])ccc(c23)C1=O`: the T/C (dose: 12.5 mg/kg/injection, schedule: Q01DX009 (ip), vehicle: Klucel (hydroxypropylcellulose) (HPC)) was 105 % of control; the T/C (dose: 25.0 mg/kg/injection, schedule: Q01DX009 (ip), vehicle: Klucel (hydroxypropylcellulose) (HPC)) is 94 % of control; the T/C (dose: 50.0 mg/kg/injection, schedule: Q01DX009 (ip), vehicle: Klucel (hydroxypropylcellulose) (HPC)) is 96 % of control.

With `CC1C(=O)OC(C)(C)C1(C)C` (stereo not drawn), the T/C is, setting by setting: under setting [10], 108 % of control; under setting [11], 96 % of control; under setting [9], 96 % of control.

Consider `O=C(Nc1ccc(F)cc1)OCCOc1ccc(Br)cc1`, for which the T/C reads like this: under setting [6], 95 % of control; under setting [7], 98 % of control; under setting [8], 102 % of control.

For the compound `CC(=O)OC1COC(NC(=O)N(CCCl)N=O)C(OC(C)=O)C1OC(C)=O` (stereo not drawn), the T/C was 211 % of control (dose: 9.0 mg/kg/injection, schedule: Q01DX001 (ip), vehicle: saline with Tween-80); 284 % of control (dose: 13.0 mg/kg/injection, schedule: Q01DX001 (ip), vehicle: saline with Tween-80); 459 % of control (dose: 20.0 mg/kg/injection, schedule: Q01DX001 (ip), vehicle: saline with Tween-80); 294 % of control (dose: 30.0 mg/kg/injection, schedule: Q01DX001 (ip), vehicle: saline with Tween-80).

As for `COC(=O)C(NC(=O)C(N)CSC(c1ccccc1)(c1ccccc1)c1ccccc1)C(C)C` (stereo not drawn) (H-Cys(Trt)-Val-OMe; configuration not given here), the T/C by setting is: (dose: 50.0 mg/kg/injection, schedule: Q01DX009 (ip), vehicle: saline) 104 % of control and 118 % of control; (dose: 100.0 mg/kg/injection, schedule: Q01DX009 (ip), vehicle: saline) 109 % of control; (dose: 400.0 mg/kg/injection, schedule: Q01DX009 (ip), vehicle: saline) 104 % of control.

With `CN(C)OC(=O)Nc1cccc2ccccc12`, the T/C runs as follows: (dose: 100.0 mg/kg/injection, schedule: Q04DX002 (ip), vehicle: DMSO) 96 % of control; (dose: 200.0 mg/kg/injection, schedule: Q04DX002 (ip), vehicle: DMSO) 108 % of control; (dose: 400.0 mg/kg/injection, schedule: Q04DX002 (ip), vehicle: DMSO) 101 % of control.
